The values below come from patent publication US9486461B2, “Methods and compositions for inducing apoptosis by stimulating ER stress” (UNIVERSITY OF SOUTHERN CALIFORNIA, priority 2007, dated 2016).

By IC50 is commonly meant the concentration at which inhibition is half-maximal.

In series [1] the test system is U87MG glioblastoma cell line. Kind of series: MTT assay, U87MG. To be noted: Homo sapiens, U-87 MG, 48 h, read-out: IC50 (50% inhibition of cell growth). It counts as cell-based. On the procedure: For comparison purposes to the known anti-multiple myeloma effects of bortezomib, the RPMI/8226 multiple myeloma cell line was included in (A).
3-(4,5-Dimethylthiazol-2-yl)-2,5-diphenyltetrazolium bromide (MTT) assays were performed in 96-well plates with the use of 3.0×10^3 to 8.0×10^3 cells per well as described in detail elsewhere (19).
(In general: Tetrazolium dyes change colour on reduction, which living cells bring about.)

Series [2] can be described thus: Drug concentrations in plasma and tumor tissue by LC-MS. Type of series: in vivo. The conditions noted are these: 50 h; for Tumor tissue levels (approximately μmol/L) / Tumor tissue levels: U87 tumor tissue; for Maximum plasma levels: tumor-bearing nude mice. The procedure: Blood was collected in heparinized syringes using cardiac puncture of nude mice. The blood was allowed to settle at room temperature for 30 min followed by centrifugation at 2,000 rpm for 5 min at 4° C. The plasma was separated from the cells and transferred to a fresh tube. […] After thorough vortexing, plasma proteins were precipitated using 425 μL acetonitrile and vortexing for 1 min. The entire mixture was centrifuged at 4,500 rpm for 5 min to separate the protein precipitate, and 400 μL of the supernatant were transferred to a fresh tube. The sample was evaporated using a steady stream of air, and the dried residue was reconstituted using 150 μL of mobile phase consisting of 80:20 (v/v) methanol:10 mmol/L ammonium acetate (pH 4.5). To remove any undissolved precipitates, the samples were again centrifuged at 4,500 rpm for 5 min, and the supernatant was transferred to a fresh tube. Ten microliters of each sample were analyzed in duplicate by liquid chromatography mass spectrometry.
To determine the amount of drug in each sample, an Agilent 1100 high-pressure liquid chromatography system (Agilent Technologies, Santa Clara, Calif.) coupled onto a Sciex API 3000 triple quadruple tandem mass spectrometer (Applied Biosystems, Foster City, Calif.) was used. To separate the analytes, a Thermo HyPURITY C18 column (50×4.6 mm, 3 micron; Thermo Fisher Scientific, Inc., Waltham, Mass.) was used. The mobile phase consisted of 80:20 (v/v) methanol:10 mmol/L ammonium acetate (pH 4.5). […] The analytes were then introduced into the Sciex API 3000, which was set in the negative ion mode. […] The lower level of quantification of this assay was established at 5 ng/mL.

In another series the test system is cellular translation. In words: Incorporation of 35S-methionine into newly translated proteins. It counts as cell-based. To be noted: 2 h of treatment.
In a further series the test system is U87 glioblastoma tumors. Kind of series: Tumor growth in xenograft nude mouse model. To be noted: daily chow for DMC, 40 mg/kg for rofecoxib, n=5. Type of series: in vivo, nude mice. On the procedure: Once palpable tumors had formed, the animals received daily chow supplemented with DMC, rofecoxib, or no drug. Tumor size was determined every three days. Shown is the average (mean±SD) tumor volume in each group (n=5). Asterisks (**): p<0.01 between control and DMC-treated animals on day 42.

For series [3], the system named is CHOP, GRP78, caspase 4 in U251 glioblastoma cells. In words: Western blot of ER stress indicators in U251 cells. It counts as cell-based, human. The conditions noted are these: U251, 30 and 50 μmol/L, 48 hours. For orientation: In western blotting, separated proteins are transferred to a membrane and probed.
The test system of series [4] is polyubiquitinated proteins in U251 cells. Kind of series: Western blot of polyubiquitinated proteins, U251. It counts as cell-based, human. To be noted: U251, increasing concentrations, 24 hours. The procedure: Total cell lysates were analyzed by Western blot with specific antibodies to ubiquitin, GRP78, CHOP, and caspase 4. Actin was used as a loading control. […] Note that in the caspase 4 blots several non-specific background bands were observed (consistent with similar observations in the literature); the specific bands were identified with the use of various controls (not shown) and comparison to the literature.
Total cell lysates were prepared and analyzed by Western blot analysis as described earlier (19). Immunohistochemical analysis of protein expression in tumor tissues was performed with the use of the Vectastain avidin-biotin complex method kit (Vector Laboratories) as described previously (32). The primary antibodies were purchased from Cell Signaling Technology or Santa Cruz Biotechnology, Inc. and used according to the manufacturers' recommendations. All immunoblots and stainings were repeated at least once to confirm the results.

The target in the next series is T1, purified COX-2 protein (Homo sapiens, UniProt P35354).
T1 sequence (P35354 18-604): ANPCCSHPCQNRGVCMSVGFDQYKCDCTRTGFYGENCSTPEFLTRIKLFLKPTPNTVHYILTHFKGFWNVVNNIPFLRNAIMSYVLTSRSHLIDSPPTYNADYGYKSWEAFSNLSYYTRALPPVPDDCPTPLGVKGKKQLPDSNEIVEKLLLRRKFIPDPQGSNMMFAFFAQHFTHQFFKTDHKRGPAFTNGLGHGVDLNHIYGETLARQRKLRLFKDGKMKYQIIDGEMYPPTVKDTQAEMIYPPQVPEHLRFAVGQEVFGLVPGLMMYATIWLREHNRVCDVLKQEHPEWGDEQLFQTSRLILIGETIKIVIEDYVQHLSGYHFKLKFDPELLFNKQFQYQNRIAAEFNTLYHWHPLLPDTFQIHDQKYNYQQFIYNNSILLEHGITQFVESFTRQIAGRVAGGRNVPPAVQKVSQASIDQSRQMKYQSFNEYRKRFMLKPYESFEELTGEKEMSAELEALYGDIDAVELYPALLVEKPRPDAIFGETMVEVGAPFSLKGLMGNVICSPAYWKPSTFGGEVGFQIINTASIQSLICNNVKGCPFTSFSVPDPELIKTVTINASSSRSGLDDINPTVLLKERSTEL
In words: COX-2 inhibition in vitro with purified COX-2 protein. It counts as biochemical. The procedure: Bortezomib was obtained from the pharmacy as 3.5 mg Velcade suspended in 3.5 mL saline (Millennium Pharmaceuticals).

The mark [5] stands for this setting: 30 mg/kg/d, average of two measurements.
Where [6] appears, read: 30 mg/kg/d, half dose every 12 h into the stomach, average of two measurements.
[7] abbreviates: 90 mg/kg/d, average of two measurements.
[8] abbreviates: 90 mg/kg/d, half dose every 12 h into the stomach, average of two measurements.
Where [9] appears, read: 150 mg/kg/d, average of two measurements.
The mark [10] stands for this setting: 150 mg/kg/d, half dose every 12 h into the stomach, average of two measurements.
Where [11] appears, read: 180 mg/kg/d, average of two measurements.
Where [12] appears, read: 180 mg/kg/d, half dose every 12 h into the stomach, average of two measurements.

Each structure is given as a SMILES string. “And” between values parts separate entries of the source, which are not always exact repeats. Equal values may be shown once. “Also recorded” adds a separate entry of the source.

As to `Cc1ccc(-c2cc(C(F)(F)F)nn2-c2ccc(S(N)(=O)=O)cc2)cc1` [celecoxib, 4-[5-(4-methylphenyl)-3-(trifluoromethyl)-1H-pyrazol-1-yl]benzenesulfonamide], the IC50 in series [1] was approximately 50 µM. Further, the “Tumor tissue levels (approximately μmol/L)” value in series [2] (30 mg/kg/d) is approximately 0.046 µmol/L; in series [2] (90 mg/kg/d) it was approximately 0.116 µmol/L; in series [2] (150 mg/kg/d), approximately 0.161 µmol/L; in series [2] (180 mg/kg/d), approximately 0.25 µmol/L; in series [2] (180 mg/kg/d, listed as Cxb), approximately 0.249 µmol/L. Besides, the Tumor tissue levels was found to be 17.53 ng/mg in series [2] (setting [5]), 44.03 ng/mg in series [2] (setting [7]), 61.23 ng/mg in series [2] (setting [9]) and 94.78 ng/mg in series [2] (setting [11]). Further, the Maximum plasma levels in series [2] (30 mg/kg/d) is 18.2 µmol/L; in series [2] (setting [6]), 6,950 μg/L; in series [2] (90 mg/kg/d), 24.8 µmol/L; in series [2] (setting [8]) it was 9,450 μg/L; in series [2] (150 mg/kg/d), 36.8 µmol/L; in series [2] (setting [10]), 14,000 μg/L. Moreover, the Maximum plasma levels was 45 µmol/L in series [2] (180 mg/kg/d); 44.6 µmol/L in series [2] (180 mg/kg/d, listed as Cxb); 17,000 μg/L in series [2] (setting [12]). For the same compound, the “reduction of ongoing translation” value in the series on cellular translation (80 μmol/L) is on record as approximately 90%.
For `Cc1ccc(C)c(-c2cc(C(F)(F)F)nn2-c2ccc(S(N)(=O)=O)cc2)c1` [DMC, 4-[5-(2,5-dimethylphenyl)-3-(trifluoromethyl)-1H-pyrazol-1-yl]benzenesulfonamide], the “tumor growth on longer-term therapy” value in the series with U87 glioblastoma tumors is given as “significantly reduced tumor growth”. Further, in series [1], the IC50 is less than 40 µM. In addition, the “Tumor tissue levels (approximately μmol/L)” value was approximately 0.021 µmol/L in series [2] (30 mg/kg/d), approximately 0.037 µmol/L in series [2] (90 mg/kg/d), approximately 0.099 µmol/L in series [2] (150 mg/kg/d) and approximately 0.280 µmol/L in series [2] (180 mg/kg/d). In addition, the Tumor tissue levels in series [2] (setting [5]) worked out at 8.27 ng/mg; in series [2] (setting [7]), 14.44 ng/mg; in series [2] (setting [9]) it was 39.04 ng/mg; in series [2] (setting [11]), 110.42 ng/mg. The Maximum plasma levels in series [2] (30 mg/kg/d) was 7.6 µmol/L; in series [2] (setting [6]) it was 3,035 μg/L; in series [2] (90 mg/kg/d), 8.0 µmol/L; in series [2] (setting [8]), 3,190 μg/L; in series [2] (150 mg/kg/d) it was 23.8 µmol/L; in series [2] (setting [10]) it was 9,500 μg/L. For the same compound, the Maximum plasma levels in series [2] (180 mg/kg/d) is 45 µmol/L and 45.5 µmol/L; in series [2] (setting [12]), 18,200 μg/L. The “reduction of ongoing translation” value with cellular translation (60 μmol/L) is recorded as approximately 90%. For the same compound, the “stimulation of the ESR (CHOP, GRP78, caspase-4 cleavage)” value in series [3] was “potently stimulated the ESR”. Also, in series [4], the “accumulation of polyubiquitinated proteins” value is recorded as “did not cause substantial accumulation of polyubiquitinated proteins”. In addition, the COX-2-inhibitory activity result on purified COX-2 protein is listed as “lacks the ability to inhibit COX-2; also recorded: lack thereof”.
